The Ki is a dissociation constant, usually derived from enzyme kinetics or from competition with a known ligand.

Drawing on ChEMBL document CHEMBL1132032, “3-Acyloxy-2-phenalkylpropyl amides and esters of homovanillic acid as novel vanilloid receptor agonists” (Bioorg Med Chem Lett, 1999), this text covers Cation influx and Ki for 18 compounds.

The target in test [1] is T1, Vanilloid receptor (Rattus norvegicus) (UniProt Q9ERZ8+Q9WUD2+O35433). Kind of test: Cation influx relative to capsaicin (CAP) in cultured neonatal rat dorsal root ganglia (No response). It is filed as functional.
The target in test [2] is Transient receptor potential cation channel subfamily V member 1 (Rattus norvegicus, UniProt O35433). Kind of test: In vitro binding affinity towards vanilloid receptor by [3H]RTX displacement.
Test [3] concerns the target T1, Vanilloid receptor (Rattus norvegicus).
Description: Cation influx relative to capsaicin (CAP) in cultured neonatal rat dorsal root ganglia (+++ = 100xCAP)
Test [4] shares this target. Kind of test: Cation influx relative to capsaicin (CAP) in cultured neonatal rat dorsal root ganglia (+ = similar to CAP). In kind it is functional.
The target is the same in test [5]. Kind of test: Cation influx relative to capsaicin (CAP) in cultured neonatal rat dorsal root ganglia (W = Weaker than CAP). In kind it is functional.
The target is the same in test [6]. Kind of test: Cation influx relative to capsaicin (CAP) in cultured neonatal rat dorsal root ganglia (++ = 10xCAP). In kind it is functional.

The structures appear in SMILES notation. Calls of active or inactive are those of the source. No cut-off for these calls is given here.

Chain of Transient receptor potential cation channel subfamily V member 1 (O35433 whole entry): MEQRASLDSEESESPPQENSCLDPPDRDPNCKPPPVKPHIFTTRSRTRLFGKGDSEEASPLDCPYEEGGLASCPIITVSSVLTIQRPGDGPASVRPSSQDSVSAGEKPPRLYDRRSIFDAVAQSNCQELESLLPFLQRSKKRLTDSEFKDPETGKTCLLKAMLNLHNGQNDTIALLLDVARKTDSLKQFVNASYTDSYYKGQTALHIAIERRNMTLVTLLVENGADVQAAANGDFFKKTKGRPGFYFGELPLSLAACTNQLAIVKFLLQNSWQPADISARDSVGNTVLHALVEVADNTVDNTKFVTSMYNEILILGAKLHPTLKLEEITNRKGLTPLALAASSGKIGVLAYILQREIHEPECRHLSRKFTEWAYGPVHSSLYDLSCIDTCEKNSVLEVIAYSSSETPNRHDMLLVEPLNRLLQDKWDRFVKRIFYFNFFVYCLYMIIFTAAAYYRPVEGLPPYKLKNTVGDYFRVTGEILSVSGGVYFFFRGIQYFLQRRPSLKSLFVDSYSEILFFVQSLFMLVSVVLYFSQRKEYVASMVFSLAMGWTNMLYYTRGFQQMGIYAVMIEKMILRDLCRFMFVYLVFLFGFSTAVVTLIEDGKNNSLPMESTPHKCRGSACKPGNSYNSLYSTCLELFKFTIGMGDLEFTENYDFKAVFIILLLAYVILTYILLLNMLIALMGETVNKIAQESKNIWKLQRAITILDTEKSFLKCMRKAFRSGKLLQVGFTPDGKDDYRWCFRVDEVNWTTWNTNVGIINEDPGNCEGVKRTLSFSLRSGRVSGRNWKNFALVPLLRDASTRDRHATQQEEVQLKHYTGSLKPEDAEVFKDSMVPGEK
T1 sequence (O35433 whole entry, looked up): as the sequence (O35433 whole entry) above
T1 sequence (Q9ERZ8 whole entry, looked up): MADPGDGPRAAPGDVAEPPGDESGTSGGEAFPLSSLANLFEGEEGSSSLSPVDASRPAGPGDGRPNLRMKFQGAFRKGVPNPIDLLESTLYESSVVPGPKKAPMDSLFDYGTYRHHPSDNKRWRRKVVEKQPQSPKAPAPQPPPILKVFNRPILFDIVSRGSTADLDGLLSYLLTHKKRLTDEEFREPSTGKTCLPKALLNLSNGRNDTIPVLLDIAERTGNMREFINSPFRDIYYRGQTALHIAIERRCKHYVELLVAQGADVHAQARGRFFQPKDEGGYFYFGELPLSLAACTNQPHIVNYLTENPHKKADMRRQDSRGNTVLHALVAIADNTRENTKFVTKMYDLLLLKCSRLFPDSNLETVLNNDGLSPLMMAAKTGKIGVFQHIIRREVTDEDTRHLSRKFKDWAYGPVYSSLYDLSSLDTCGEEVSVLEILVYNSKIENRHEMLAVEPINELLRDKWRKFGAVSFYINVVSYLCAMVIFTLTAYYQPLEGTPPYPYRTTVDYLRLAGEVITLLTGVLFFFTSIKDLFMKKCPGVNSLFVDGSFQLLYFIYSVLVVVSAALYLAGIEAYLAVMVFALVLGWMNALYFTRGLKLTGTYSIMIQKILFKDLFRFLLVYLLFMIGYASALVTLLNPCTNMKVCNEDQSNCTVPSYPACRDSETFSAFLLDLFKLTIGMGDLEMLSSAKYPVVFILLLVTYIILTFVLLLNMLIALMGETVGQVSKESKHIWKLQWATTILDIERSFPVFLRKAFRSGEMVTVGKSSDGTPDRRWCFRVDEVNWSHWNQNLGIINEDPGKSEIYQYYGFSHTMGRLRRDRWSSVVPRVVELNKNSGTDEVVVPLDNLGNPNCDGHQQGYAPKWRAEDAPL
T1 sequence (Q9WUD2 whole entry, looked up): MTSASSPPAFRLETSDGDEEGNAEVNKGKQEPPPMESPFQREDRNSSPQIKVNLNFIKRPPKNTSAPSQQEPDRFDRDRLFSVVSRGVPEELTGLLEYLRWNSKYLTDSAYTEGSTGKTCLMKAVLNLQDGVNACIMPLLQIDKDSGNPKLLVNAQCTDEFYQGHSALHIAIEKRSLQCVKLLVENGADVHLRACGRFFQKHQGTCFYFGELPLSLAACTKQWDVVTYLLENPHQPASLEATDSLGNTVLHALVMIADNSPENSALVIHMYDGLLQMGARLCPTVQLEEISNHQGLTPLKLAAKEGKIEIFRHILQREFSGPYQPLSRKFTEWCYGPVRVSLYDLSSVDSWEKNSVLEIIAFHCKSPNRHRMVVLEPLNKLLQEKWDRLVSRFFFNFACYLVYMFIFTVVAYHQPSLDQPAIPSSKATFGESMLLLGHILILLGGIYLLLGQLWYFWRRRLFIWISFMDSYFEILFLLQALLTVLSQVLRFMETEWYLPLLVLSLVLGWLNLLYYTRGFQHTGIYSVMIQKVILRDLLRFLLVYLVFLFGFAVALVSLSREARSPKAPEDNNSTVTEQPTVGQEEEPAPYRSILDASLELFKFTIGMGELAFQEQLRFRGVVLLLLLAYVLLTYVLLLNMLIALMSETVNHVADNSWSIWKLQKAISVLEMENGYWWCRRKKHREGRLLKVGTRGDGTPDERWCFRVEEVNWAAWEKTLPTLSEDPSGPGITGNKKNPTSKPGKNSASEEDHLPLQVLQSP

Consider `COc1cc(CC(=O)OC/C(=C\COCc2ccccc2)COC(C)=O)ccc1O`, for which the Cation influx entry in test [1] is “inactive”. In test [2], the Ki is > 100 µM.
For `COc1cc(CC(=O)OCC(COC(C)=O)Cc2ccccc2)ccc1O` (stereo unspecified), the Cation influx result in test [1] is “inactive”. Also, in test [2], the Ki is > 100 µM.
Consider `COc1cc(CC(=O)OC/C(=C/COCc2ccccc2)COC(C)=O)ccc1O`, for which the Cation influx entry in test [1] was “inactive”. In addition, the Ki in test [2] is > 100 µM.
In test [2], `C=C(C)[C@]12C[C@@H](C)[C@@]34O[C@](Cc5ccccc5)(O[C@@H]1[C@@H]3C=C(COC(=O)Cc1ccc(O)c(OC)c1)C[C@]1(O)C(=O)C(C)=C[C@@H]41)O2` [RESINIFERATOXIN] returned a Ki of 2.3e-05 µM. Further, in test [3], the Cation influx entry is “Active”.
As for `COc1cc(CC(=O)OCC(COC(C)=O)OCc2ccccc2)ccc1O` (stereo unspecified), in test [1], the Cation influx result is “inactive”. Further, the Ki in test [2] was > 100 µM.
As to `COc1cc(CC(=O)OCC(COCc2ccccc2)COC(C)=O)ccc1O` (stereo unspecified), the Cation influx entry in test [1] was “inactive”. Further, the Ki in test [2] is > 100 µM.
On to `COc1cc(CC(=O)NCCCc2ccc(C)c(C)c2)ccc1OCCN` [DAVASAICIN], for which the Cation influx entry in test [4] was “Active”. For the same compound, in test [2], the Ki was 1.4 µM.
With `COc1cc(CC(=O)NCC(COCc2ccccc2)COC(C)=O)ccc1O` (stereo unspecified), the Cation influx entry in test [1] was “inactive”. Besides, the Ki in test [2] was found to be 78 µM.
On to `COc1cc(CC(=O)NCC(CCc2ccccc2)COC(C)=O)ccc1O` (stereo unspecified), for which the Cation influx entry in test [5] was “Partially active”. The compound also registered a Ki in test [2] of 45.2 µM.
In the case of `COc1cc(CC(=O)NC/C(=C/Cc2ccccc2)COC(C)=O)ccc1O`, the Cation influx entry in test [5] is “Partially active”. The compound further yielded a Ki in test [2] of 29.2 µM.
Turning to `COc1cc(CC(=O)NCC(CCc2ccccc2)COC(=O)C(C)(C)C)ccc1O` (stereo unspecified), the Cation influx result in test [6] is “Active”. Moreover, the Ki in test [2] amounted to 0.295 µM.
As for `COc1cc(CC(=O)NCC(/C=C/C(=O)OC(C)(C)C)Cc2ccccc2)ccc1O` (stereo unspecified), in test [6], the Cation influx result is “Active”. In test [2], this compound returned a Ki of 0.48 µM.
Take `COc1cc(CC(=O)NC/C(=C\Cc2ccccc2)COC(=O)C(C)(C)C)ccc1O`: the Cation influx result in test [6] is “Active”. Also, the affinity in test [2], expressed as Ki, was 1.22 µM.
On to `COc1cc(CC(=O)NCC(COC(C)=O)OCc2ccccc2)ccc1O` (stereo unspecified), for which the Cation influx result in test [1] is “inactive”. For the same compound, in test [2], the Ki was > 100 µM.
In the case of `COc1cc(CC(=O)NCC(COC(=O)C(C)(C)C)Cc2ccccc2)ccc1O` (stereo unspecified), the Cation influx result in test [6] is “Active”. This compound also displayed a Ki in test [2] of 0.404 µM.
As to `COc1cc(CC(=O)NCC(COC(C)=O)Cc2ccccc2)ccc1O` (stereo unspecified), the Cation influx entry in test [5] was “Partially active”. In test [2], this compound displayed a Ki of 19.3 µM.
Consider `COC(=O)/C=C/C(CNC(=O)Cc1ccc(O)c(OC)c1)Cc1ccccc1` (stereo unspecified), for which the Cation influx result in test [5] was “Partially active”. The compound also gave a Ki in test [2] of 13.5 µM.
Take `COc1cc(CC(=O)NC/C(=C\Cc2ccccc2)COC(C)=O)ccc1O`: the Cation influx result in test [5] was “Partially active”. In addition, the Ki in test [2] worked out at 12.9 µM.
